{"source": "patent US20260256792A1", "about": "“TREATMENT OF CHRONIC SPONTANEOUS URTICARIA BY ADMINISTERING (R)-2-[3-[4-AMINO-3-(2-FLUORO-4-PHENOXY-PHENYL)PYRAZOLO[3,4-D]PYRIMIDIN-1-YL]PIPERIDINE-1-CARBONYL]-4-METHYL-4-[4-(OXETAN-3-YL)PIPERAZIN-1-YL]PENT-2-ENENITRILE” (priority 2023, published 2026)", "tested_on": "moderate-to-severe chronic spontaneous urticaria (CSU)", "experiment": "Phase 2 CSU study: urticaria activity score over 7 days (UAS7)", "type": "in vivo, human", "conditions": "Omalizumab-naïve, 400 mg QPM", "excerpt": "The study comprises a 12 week, randomized, double-blind, placebo-controlled, multi-center, dose-ranging efficacy and safety phase, followed by a 40 week open label extension (OLE) phase (see FIG. 1). The study consists of three phases and an optional OLE phase. […] Clinically, CSU is characterized by the spontaneous and recurrent appearance of pruritic hives. The proposed primary endpoints were the UAS7 at Week 12 in EU and EU reference countries and the ISS7 in the US. Regardless of where a participant was from, all assessments were the same. The UAS7 score is a composite score containing both the HSS7 and the ISS7. This allowed a global assessment of the two key components of urticaria: hives and itch. […] The UAS is a validated PRO measure. […] The daily UAS scores range from 0 to 6 point/day. […] Patients were to complete the UAS using the e-diary. […] The following secondary endpoints were to be analyzed using the same approach as for the primary endpoint: • Change from baseline in UAS7 at Week 4 • Change from baseline in UAS7 at Week 12 (for US and US reference countries) • Change from baseline in ISS7 at Week 12 (except US and US reference countries) • Change from baseline in HSS7 at Week 12 The following responder secondary endpoints were to be analyzed using the Cochran-Mantel-Haenszel test adjusted by region: • Proportion of participants with UAS7<6 at Week 12 • Proportion of participants with UAS7=0 at Week 12 Participants who received selected prohibited medications and/or rescue medications were to be considered as non-responders for time points after the medication usage. For other participants, all available data including those collected during the off-treatment period were to be used to determine the responder/non-responder status. Missing data were to be considered as non-responders.", "data": [{"smiles": "CC(C)(C=C(C#N)C(=O)N1CCC[C@@H](n2nc(-c3ccc(Oc4ccccc4)cc3F)c3c(N)ncnc32)C1)N1CCN(C2COC2)CC1", "note": "[rilzabrutinib, (R)-2-[3-[4-amino-3-(2-fluoro-4-phenoxy-phenyl)pyrazolo[3,4-d]pyrimidin-1-yl]piperidine-1-carbonyl]-4-methyl-4-[4-(oxetan-3-yl)piperazin-1-yl]pent-2-enenitrile]", "values": [{"measurement": "Non-responder n (%), UAS7 ≤6", "setting": "Week 1", "value": "35 (94.6) n (%)"}, {"measurement": "OR for rilzabrutinib vs. placebo, UAS7 = 0", "setting": "Week 1", "value": "0.000 (NE,"}, {"measurement": "RRD (%) for rilzabrutinib vs. placebo, UAS7 = 0", "setting": "Week 1", "value": "−2.9", "unit": "%"}, {"measurement": "RRD (%) for rilzabrutinib vs. placebo, UAS7 ≤6", "setting": "Week 1", "value": "−0.0", "unit": "%"}, {"measurement": "Responder n (%), UAS7 = 0", "setting": "Week 1", "value": "0 n (%)"}, {"measurement": "Responder n (%), UAS7 ≤6", "setting": "Week 1", "value": "2 (5.4) n (%)"}, {"measurement": "Imputed non-responder n (%), UAS7 = 0", "setting": "Week 2", "value": "0 n (%)"}, {"measurement": "Imputed non-responder n (%), UAS7 ≤6", "setting": "Week 2", "value": "0 n (%)"}, {"measurement": "Non-responder n (%), UAS7 = 0", "setting": "Week 2", "value": "37 (100) n (%)"}, {"measurement": "Non-responder n (%), UAS7 ≤6", "setting": "Week 2", "value": "36 (97.3) n (%)"}, {"measurement": "OR for rilzabrutinib vs. placebo, UAS7 = 0", "setting": "Week 2", "value": "0.000 (NE,"}, {"measurement": "OR for rilzabrutinib vs. placebo, UAS7 ≤6", "setting": "Week 2", "value": 0.489}, {"measurement": "RRD (%) for rilzabrutinib vs. placebo, UAS7 = 0", "setting": "Week 2", "value": "−2.9", "unit": "%"}, {"measurement": "RRD (%) for rilzabrutinib vs. placebo, UAS7 ≤6", "setting": "Week 2", "value": "−2.7", "unit": "%"}, {"measurement": "Responder n (%), UAS7 = 0", "setting": "Week 2", "value": "0 n (%)"}, {"measurement": "Responder n (%), UAS7 ≤6", "setting": "Week 2", "value": "1 (2.7) n (%)"}, {"measurement": "Imputed non-responder n (%), UAS7 = 0", "setting": "Week 3", "value": "0 n (%)"}, {"measurement": "Imputed non-responder n (%), UAS7 ≤6", "setting": "Week 3", "value": "0 n (%)"}, {"measurement": "Non-responder n (%), UAS7 = 0", "setting": "Week 3", "value": "37 (100) n (%)"}, {"measurement": "Non-responder n (%), UAS7 ≤6", "setting": "Week 3", "value": "35 (94.6) n (%)"}, {"measurement": "OR for rilzabrutinib vs. placebo, UAS7 = 0", "setting": "Week 3", "value": "0.000 (NE,"}, {"measurement": "OR for rilzabrutinib vs. placebo, UAS7 ≤6", "setting": "Week 3", "value": 0.666}, {"measurement": "RRD (%) for rilzabrutinib vs. placebo, UAS7 = 0", "setting": "Week 3", "value": "−2.9", "unit": "%"}, {"measurement": "RRD (%) for rilzabrutinib vs. placebo, UAS7 ≤6", "setting": "Week 3", "value": "−2.5", "unit": "%"}, {"measurement": "Responder n (%), UAS7 = 0", "setting": "Week 3", "value": "0 n (%)"}, {"measurement": "Responder n (%), UAS7 ≤6", "setting": "Week 3", "value": "2 (5.4) n (%)"}, {"measurement": "Imputed non-responder n (%), UAS7 = 0", "setting": "Week 4", "value": "1 (2.7) n (%)"}, {"measurement": "Imputed non-responder n (%), UAS7 ≤6", "setting": "Week 4", "value": "1 (2.7) n (%)"}, {"measurement": "Non-responder n (%), UAS7 = 0", "setting": "Week 4", "value": "37 (100) n (%)"}, {"measurement": "Non-responder n (%), UAS7 ≤6", "setting": "Week 4", "value": "35 (94.6) n (%)"}, {"measurement": "OR for rilzabrutinib vs. placebo, UAS7 = 0", "setting": "Week 4", "value": "0.000 (NE,"}, {"measurement": "OR for rilzabrutinib vs. placebo, UAS7 ≤6", "setting": "Week 4", "value": 0.486}, {"measurement": "RRD (%) for rilzabrutinib vs. placebo, UAS7 = 0", "setting": "Week 4", "value": "−5.3", "unit": "%"}, {"measurement": "RRD (%) for rilzabrutinib vs. placebo, UAS7 ≤6", "setting": "Week 4", "value": "−5.0", "unit": "%"}, {"measurement": "Responder n (%), UAS7 = 0", "setting": "Week 4", "value": "0 n (%)"}, {"measurement": "Responder n (%), UAS7 ≤6", "setting": "Week 4", "value": "2 (5.4) n (%)"}, {"measurement": "Imputed non-responder n (%), UAS7 = 0", "setting": "Week 5", "value": "2 (5.4) n (%)"}, {"measurement": "Imputed non-responder n (%), UAS7 ≤6", "setting": "Week 5", "value": "2 (5.4) n (%)"}, {"measurement": "Non-responder n (%), UAS7 = 0", "setting": "Week 5", "value": "36 (97.3) n (%)"}, {"measurement": "Non-responder n (%), UAS7 ≤6", "setting": "Week 5", "value": "35 (94.6) n (%)"}, {"measurement": "OR for rilzabrutinib vs. placebo, UAS7 = 0", "setting": "Week 5", "value": 0.923}, {"measurement": "OR for rilzabrutinib vs. placebo, UAS7 ≤6", "setting": "Week 5", "value": 0.986}, {"measurement": "RRD (%) for rilzabrutinib vs. placebo, UAS7 = 0", "setting": "Week 5", "value": "−0.2", "unit": "%"}, {"measurement": "RRD (%) for rilzabrutinib vs. placebo, UAS7 ≤6", "setting": "Week 5", "value": "−0.1", "unit": "%"}, {"measurement": "Responder n (%), UAS7 = 0", "setting": "Week 5", "value": "1 (2.7) n (%)"}, {"measurement": "Responder n (%), UAS7 ≤6", "setting": "Week 5", "value": "2 (5.4) n (%)"}, {"measurement": "Imputed non-responder n (%), UAS7 = 0", "setting": "Week 6", "value": "4 (10.8) n (%)"}, {"measurement": "Imputed non-responder n (%), UAS7 ≤6", "setting": "Week 6", "value": "4 (10.8) n (%)"}, {"measurement": "Non-responder n (%), UAS7 = 0", "setting": "Week 6", "value": "36 (97.3) n (%)"}, {"measurement": "Non-responder n (%), UAS7 ≤6", "setting": "Week 6", "value": "34 (91.9) n (%)"}, {"measurement": "OR for rilzabrutinib vs. placebo, UAS7 = 0", "setting": "Week 6", "value": 0.923}, {"measurement": "RRD (%) for rilzabrutinib vs. placebo, UAS7 = 0", "setting": "Week 6", "value": "−0.2", "unit": "%"}, {"measurement": "RRD (%) for rilzabrutinib vs. placebo, UAS7 ≤6", "setting": "Week 6", "value": "−7.8", "unit": "%"}, {"measurement": "Responder n (%), UAS7 = 0", "setting": "Week 6", "value": "1 (2.7) n (%)"}, {"measurement": "Responder n (%), UAS7 ≤6", "setting": "Week 6", "value": "3 (8.1) n (%)"}, {"measurement": "Imputed non-responder n (%), UAS7 = 0", "setting": "Week 7", "value": "6 (16.2) n (%)"}, {"measurement": "Imputed non-responder n (%), UAS7 ≤6", "setting": "Week 7", "value": "6 (16.2) n (%)"}, {"measurement": "Non-responder n (%), UAS7 = 0", "setting": "Week 7", "value": "36 (97.3) n (%)"}, {"measurement": "Non-responder n (%), UAS7 ≤6", "setting": "Week 7", "value": "36 (97.3) n (%)"}, {"measurement": "OR for rilzabrutinib vs. placebo, UAS7 = 0", "setting": "Week 7", "value": 1.061}, {"measurement": "OR for rilzabrutinib vs. placebo, UAS7 ≤6", "setting": "Week 7", "value": 0.249}, {"measurement": "RRD (%) for rilzabrutinib vs. placebo, UAS7 = 0", "setting": "Week 7", "value": 0.2, "unit": "%"}, {"measurement": "RRD (%) for rilzabrutinib vs. placebo, UAS7 ≤6", "setting": "Week 7", "value": "−8.3", "unit": "%"}, {"measurement": "Responder n (%), UAS7 = 0", "setting": "Week 7", "value": "1 (2.7) n (%)"}, {"measurement": "Responder n (%), UAS7 ≤6", "setting": "Week 7", "value": "1 (2.7) n (%)"}, {"measurement": "Imputed non-responder n (%), UAS7 = 0", "setting": "Week 8", "value": "7 (18.9) n (%)"}]}]}
